As a reminder, the IC50 is the concentration that inhibits the measured activity by half.

SMILES strings stand for the structures. Bounds are passed on as bounds.

This is an account of results in patent publication US8299021B2, “Macrocyclic inhibitors of hepatitis C virus replication” (InterMune, Inc., priority 2005, dated 2012).

In one assay the target is T1, NS3-NS4 protease (full-length NS3/NS4A-2) (Hepatitis C virus genotype 1a, UniProt P27958).
T1 construct: Recombinant E. coli or Baculovirus full-length NS3 was diluted to 3.33 μM with assay buffer; made in house; host or cells: E. coli or baculovirus (insect cells)
T1 sequence (P27958 1027-1657): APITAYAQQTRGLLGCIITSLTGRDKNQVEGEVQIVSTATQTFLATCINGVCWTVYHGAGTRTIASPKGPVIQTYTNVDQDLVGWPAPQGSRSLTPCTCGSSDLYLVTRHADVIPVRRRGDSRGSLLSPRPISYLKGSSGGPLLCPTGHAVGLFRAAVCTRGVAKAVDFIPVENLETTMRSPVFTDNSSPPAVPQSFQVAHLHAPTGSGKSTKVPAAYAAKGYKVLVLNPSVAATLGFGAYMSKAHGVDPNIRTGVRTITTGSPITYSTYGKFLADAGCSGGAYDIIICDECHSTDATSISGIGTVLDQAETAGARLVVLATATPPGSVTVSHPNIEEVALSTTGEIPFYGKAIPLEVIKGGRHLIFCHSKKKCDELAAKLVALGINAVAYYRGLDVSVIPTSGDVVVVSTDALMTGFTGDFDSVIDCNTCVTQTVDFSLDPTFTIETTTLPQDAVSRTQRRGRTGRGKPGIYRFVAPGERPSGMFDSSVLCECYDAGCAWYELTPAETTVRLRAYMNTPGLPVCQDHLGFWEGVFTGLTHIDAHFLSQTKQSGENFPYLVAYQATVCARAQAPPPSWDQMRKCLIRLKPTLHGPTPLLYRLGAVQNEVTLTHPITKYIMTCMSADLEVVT
In words: NS3-NS4 protease assay / NS3 inhibition assay (RETS1 substrate, fluorescence kinetic read). Format: biochemical.
Details: not given
How it is done: NS3 complex formation with NS4A-2.
The appropriate amount of NS4A-2 to 8.3 mM in assay buffer was added to equal the volume of NS3 in step 2.1.1 (conversion factor—3.8 mg/272 μL assay buffer). The material was transferred to an eppendorf tube and place in water bath in 4° C. refrigerator.
After equilibration to 4° C., equal volumes of NS3 and NS4A-2 solutions were combined in an eppendorf tube, mix gently with a manual pipettor, and incubate mixture for 15 minutes in the 4° C. water bath.
After 15 minutes at 4° C., the NS3/NS4A-2 eppendorf tube was removed and place it in a room temperature water bath for 10 minutes. NS3/NS4A-2 was alliquoted at appropriate volumes and store at −80° C. (E. coli NS3 run at 2 nM in assay, aliquot at 25 μL. BV NS3 run at 3 nM in assay, aliquot at 30 μL).
Sample compounds were dissolved to 10 mM in DMSO then diluted to 2.5 mM (1:4) in DMSO.
The E. coli. […] Using the manual multichannel pipettor, careful not to introduce bubbles into the plate, add 50 μL assay buffer to wells A01-H01 of a black Costar 96-well polypropylene storage plate.
Using the manual multichannel pipettor, careful not to introduce bubbles into the plate, add 50 μL of diluted NS3/NS4A-2 from step 2.2.6 to wells A02-H12 of plate in step 2.2.7. Using the manual multichannel pipettor, careful not to introduce bubbles into the plate, transfer 25 μL of the wells in drug dilution plate in step 2.2.5 to corresponding wells in assay plate in step 2.2.8. Change tips on multichannel pipettor for each row of compounds transferred. Using the manual multichannel pipettor, careful not to introduce bubbles into the plate, mix the wells from the assay plate in step 2.2.9 by aspirating and dispensing 35 μL of the 75 μL in each well five times. Change tips on multichannel pipettor for each row of wells mixed. Cover plate with a polystyrene plate lid and pre-incubate the plate from step 2.2.10 containing NS3 protease and sample compounds 10 minutes at room temperature. While plate from step 2.2.11 is pre-incubating, dilute RETS1 substrate in a 15 mL polypropylene centrifuge tube.
After the plate in step is done pre-incubating, and using the manual multichannel, add 25 μL of substrate to all wells on the plate. Quickly mix the plate as in step 2.2.10, mixing 65 μL of the 100 μL in the wells.
Read the plate in kinetic mode on the Molecular Devices SpectraMax
IC50s are determined using a four parameter curve fit equation, and converted to Ki's using the following Km's:
where Ki=IC50/(1+[S]/Km))
The compound `O=C(N[C@H]1CCCCC/C=C\[C@@H]2C[C@@]2(C(=O)NS(=O)(=O)C2CC2)NC(=O)[C@@H]2C[C@@H](OC(=O)N3Cc4cccc(F)c4C3)CN2C1=O)C(O)C(F)(F)F` (single isomer, unassigned) [Compound 247] had an IC50 of less than 100 nM.

The assay is the same for the next values; noted with them: Table 22; read-out: NS3-NS4 IC50.
For `CC(C)(C)OC(=O)N[C@H]1CCCCC/C=C\[C@@H]2C[C@@]2(C(=O)NC2CCC2)NC(=O)[C@@H]2CCCN2C1=O` [Compound 2303], the IC50 was less than 1000 nM. For `C[C@@H](NC(=O)[C@@]12C[C@H]1/C=C\CCCCC[C@H](NC(=O)OC(C)(C)C)C(=O)N1CCC[C@H]1C(=O)N2)c1ccccc1` [Compound 2311], the 50% inhibitory concentration (IC50) is less than 1000 nM.

Still in this assay, the particulars now being: read-out: NS3-NS4 IC50.
For `CC(C)S(=O)(=O)NC(=O)[C@@]12C[C@H]1/C=C\CCCCC[C@H](NC(=O)OC(C)(C)C)C(=O)N1CCC[C@H]1C(=O)N2` [Compound 2104], the IC50 was less than 10000 nM. As to `CN(CC#N)S(=O)(=O)NC(=O)[C@@]12C[C@H]1/C=C\CCCCC[C@H](NC(=O)OC(C)(C)C)C(=O)N1CCC[C@H]1C(=O)N2` [Compound 2249], the IC50 is less than 1000 nM. The same measure, in the same setting: as for `CC(C)(C)OC(=O)N[C@H]1CCCCC/C=C\[C@@H]2C[C@@]2(C(=O)NS(=O)(=O)c2ccc(Cl)cc2)NC(=O)[C@@H]2CCCN2C1=O` [Compound 2129], the figure is less than 10000 nM.

`CC(C)(C)OC(=O)N[C@H]1CCCCC/C=C\[C@@H]2C[C@@]2(C(=O)NS(=O)(=O)NC2CCC2)NC(=O)[C@@H]2CCCN2C1=O` [Compound 2214]: the IC50 was less than 1000 nM. For `CN(CCc1ccccc1)S(=O)(=O)NC(=O)[C@@]12C[C@H]1/C=C\CCCCC[C@H](NC(=O)OC(C)(C)C)C(=O)N1CCC[C@H]1C(=O)N2` [Compound 2248], the IC50 was less than 10000 nM.

As to `CC(C)(C)OC(=O)N[C@H]1CCCCC/C=C\[C@@H]2C[C@@]2(C(=O)NS(=O)(=O)Nc2ccccc2)NC(=O)[C@@H]2CCCN2C1=O` [Compound 2246], the concentration for half-maximal inhibition (IC50) is less than 1000 nM. In the case of `CC(C)(C)OC(=O)N[C@H]1CCCCC/C=C\[C@@H]2C[C@@]2(C(=O)NS(=O)(=O)NCC2CC2)NC(=O)[C@@H]2CCCN2C1=O` [Compound 2245], the IC50 is less than 100 nM.

Turning to `COc1ccc(NS(=O)(=O)NC(=O)[C@@]23C[C@H]2/C=C\CCCCC[C@H](NC(=O)OC(C)(C)C)C(=O)N2CCC[C@H]2C(=O)N3)cc1` [Compound 2244], the IC50 is less than 100 nM.

In the case of `CCCNS(=O)(=O)NC(=O)[C@@]12C[C@H]1/C=C\CCCCC[C@H](NC(=O)OC(C)(C)C)C(=O)N1CCC[C@H]1C(=O)N2` [Compound 2217], the IC50 is less than 1000 nM. As for `CCCCS(=O)(=O)NC(=O)[C@@]12C[C@H]1/C=C\CCCCC[C@H](NC(=O)OC(C)(C)C)C(=O)N1CCC[C@H]1C(=O)N2` [Compound 2106], the IC50 was less than 100 nM. Turning to `Cc1ccc(CC(=O)N[C@H]2CCCCC/C=C\[C@@H]3C[C@@]3(C(=O)NS(=O)(=O)C3CC3)NC(=O)C3CCCN3C2=O)cc1` (some centres unmarked) [Compound 2140], the IC50 was more than 10000 nM. Regarding `CC(C)(C)OC(=O)N[C@H]1CCCCC/C=C\[C@@H]2C[C@@]2(C(=O)NS(=O)(=O)c2ccccc2)NC(=O)[C@@H]2CCCN2C1=O` [Compound 2101], the IC50 was less than 10000 nM. Turning to `CC(C)(C)OC(=O)N[C@H]1CCCCC/C=C\[C@@H]2C[C@@]2(C(=O)NS(C)(=O)=O)NC(=O)[C@@H]2CCCN2C1=O` [Compound 2103], the IC50 was less than 1000 nM. Regarding `CC(C)(C)OC(=O)N[C@H]1CCCCC/C=C\[C@@H]2C[C@@]2(C(=O)NS(=O)(=O)Nc2ccc(Cl)cc2)NC(=O)[C@@H]2CCCN2C1=O` [Compound 2247], the 50% inhibitory concentration (IC50) is more than 10000 nM.

Consider `CCC1CCCCN1S(=O)(=O)NC(=O)[C@@]12C[C@H]1/C=C\CCCCC[C@H](NC(=O)OC(C)(C)C)C(=O)N1CCC[C@H]1C(=O)N2` (some centres unmarked) [Compound 2220], for which the IC50 is less than 1000 nM. On the same count and under the same terms, with `CC1CCCCN1S(=O)(=O)NC(=O)[C@@]12C[C@H]1/C=C\CCCCC[C@H](NC(=O)OC(C)(C)C)C(=O)N1CCC[C@H]1C(=O)N2` (some centres unmarked) [Compound 2225] the figure was less than 10000 nM.

With `CC(C)(C)OC(=O)N[C@H]1CCCCC/C=C\[C@@H]2C[C@@]2(C(=O)NS(=O)(=O)c2ccc(Cl)cc2Cl)NC(=O)[C@@H]2CCCN2C1=O` [Compound 2153], the IC50 was less than 10000 nM.
